The results in this text go back to publication PMC7486443, “Generation of Phenothiazine with Potent Anti-TLK1 Activity for Prostate Cancer Therapy” (iScience, 2020).

Among the targets are BRSK2 (Homo sapiens, UniProt Q8IWQ3); BTK (Homo sapiens, UniProt Q06187); CDK9 (Homo sapiens, UniProt P50750); EPHA1 (Homo sapiens, UniProt P21709); EPHA8 (Homo sapiens, UniProt P29322); HIPK1 (Homo sapiens, UniProt Q86Z02); KIT(V559D) (Homo sapiens, UniProt P10721, V559D); NEK3 (Homo sapiens, UniProt P51956); NLK (Homo sapiens, UniProt Q9UBE8); PAK3 (Homo sapiens, UniProt O75914); PDPK1 (Homo sapiens, UniProt O15530); PIK3CA(C420R) (Homo sapiens, UniProt P42336, C420R); SGK2 (Homo sapiens, UniProt Q9HBY8).

Common to all, as to assay: biochemical
Set-up in all cases: DiscoverX KINOMEscan scanMAX competition binding panel, single concentration, percent of control; remaining binding: dose or concentration left out as unconfirmed
Conditions in all cases: KINOMEscan binding, percent of control; read-out: Table S4_SCANMAX REPORT - related to Fig. 1 / Percent Control

For experiment [1], the target named is T1, ABL1(Q252H)-phosphorylated (Homo sapiens, UniProt P00519, Q252H).
T1 construct: phosphorylated

Another experiment addresses T2, CAMK1B (Homo sapiens, UniProt Q6P2M8).
T2 construct: gene PNCK

For a further experiment, the target named is T3, MLCK (Homo sapiens, UniProt Q32MK0).
T3 construct: gene MYLK3

The next experiment has as its target T4, NDR2 (Homo sapiens, UniProt Q9Y2H1).
T4 construct: gene STK38L

A further experiment concerns the target T5, QSK (Homo sapiens, UniProt Q9Y2K2).
T5 construct: gene SIK3

Another experiment concerns the target T6, VPS34 (Homo sapiens, UniProt Q8NEB9).
T6 construct: gene PIK3C3

T6 sequence (Q8NEB9 whole entry): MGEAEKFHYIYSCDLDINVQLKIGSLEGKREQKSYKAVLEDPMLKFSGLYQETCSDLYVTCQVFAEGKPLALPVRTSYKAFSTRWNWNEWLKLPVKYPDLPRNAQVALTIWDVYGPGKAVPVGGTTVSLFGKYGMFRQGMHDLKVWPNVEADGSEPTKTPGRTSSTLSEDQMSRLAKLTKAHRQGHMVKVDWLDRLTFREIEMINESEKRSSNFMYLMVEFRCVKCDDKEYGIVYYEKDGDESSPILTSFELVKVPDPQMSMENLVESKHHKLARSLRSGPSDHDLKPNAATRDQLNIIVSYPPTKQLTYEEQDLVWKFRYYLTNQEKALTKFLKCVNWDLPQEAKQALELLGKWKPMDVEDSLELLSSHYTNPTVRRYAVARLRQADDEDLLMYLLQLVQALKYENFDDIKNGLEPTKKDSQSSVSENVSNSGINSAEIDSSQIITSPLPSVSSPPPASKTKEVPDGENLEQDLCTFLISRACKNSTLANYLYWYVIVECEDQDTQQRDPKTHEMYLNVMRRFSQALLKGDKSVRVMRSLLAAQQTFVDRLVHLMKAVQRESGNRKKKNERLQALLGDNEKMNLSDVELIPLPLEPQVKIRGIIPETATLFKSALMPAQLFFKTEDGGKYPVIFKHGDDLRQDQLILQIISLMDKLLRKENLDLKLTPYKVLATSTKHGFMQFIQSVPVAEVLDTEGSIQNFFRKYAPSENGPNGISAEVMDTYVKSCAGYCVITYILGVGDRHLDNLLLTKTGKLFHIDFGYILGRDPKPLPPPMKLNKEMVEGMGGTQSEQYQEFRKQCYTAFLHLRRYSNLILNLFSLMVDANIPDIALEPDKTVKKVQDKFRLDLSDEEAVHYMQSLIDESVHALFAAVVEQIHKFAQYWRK
NLK, sequence (Q9UBE8 whole entry): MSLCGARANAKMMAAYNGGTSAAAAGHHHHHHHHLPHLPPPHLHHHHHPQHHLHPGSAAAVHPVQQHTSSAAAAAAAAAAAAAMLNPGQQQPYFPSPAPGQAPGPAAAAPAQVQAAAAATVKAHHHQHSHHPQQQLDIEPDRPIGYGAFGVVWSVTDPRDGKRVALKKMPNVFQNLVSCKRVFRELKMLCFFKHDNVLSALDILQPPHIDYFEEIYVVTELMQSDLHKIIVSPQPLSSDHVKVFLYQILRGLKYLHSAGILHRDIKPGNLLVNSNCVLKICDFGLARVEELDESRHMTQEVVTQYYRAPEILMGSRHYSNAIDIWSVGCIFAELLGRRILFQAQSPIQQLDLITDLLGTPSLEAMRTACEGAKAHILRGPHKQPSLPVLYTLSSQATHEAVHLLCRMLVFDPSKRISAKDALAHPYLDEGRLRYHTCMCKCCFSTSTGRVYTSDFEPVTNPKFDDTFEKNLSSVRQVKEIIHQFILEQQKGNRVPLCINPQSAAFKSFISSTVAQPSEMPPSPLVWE
BRSK2, sequence (Q8IWQ3 whole entry): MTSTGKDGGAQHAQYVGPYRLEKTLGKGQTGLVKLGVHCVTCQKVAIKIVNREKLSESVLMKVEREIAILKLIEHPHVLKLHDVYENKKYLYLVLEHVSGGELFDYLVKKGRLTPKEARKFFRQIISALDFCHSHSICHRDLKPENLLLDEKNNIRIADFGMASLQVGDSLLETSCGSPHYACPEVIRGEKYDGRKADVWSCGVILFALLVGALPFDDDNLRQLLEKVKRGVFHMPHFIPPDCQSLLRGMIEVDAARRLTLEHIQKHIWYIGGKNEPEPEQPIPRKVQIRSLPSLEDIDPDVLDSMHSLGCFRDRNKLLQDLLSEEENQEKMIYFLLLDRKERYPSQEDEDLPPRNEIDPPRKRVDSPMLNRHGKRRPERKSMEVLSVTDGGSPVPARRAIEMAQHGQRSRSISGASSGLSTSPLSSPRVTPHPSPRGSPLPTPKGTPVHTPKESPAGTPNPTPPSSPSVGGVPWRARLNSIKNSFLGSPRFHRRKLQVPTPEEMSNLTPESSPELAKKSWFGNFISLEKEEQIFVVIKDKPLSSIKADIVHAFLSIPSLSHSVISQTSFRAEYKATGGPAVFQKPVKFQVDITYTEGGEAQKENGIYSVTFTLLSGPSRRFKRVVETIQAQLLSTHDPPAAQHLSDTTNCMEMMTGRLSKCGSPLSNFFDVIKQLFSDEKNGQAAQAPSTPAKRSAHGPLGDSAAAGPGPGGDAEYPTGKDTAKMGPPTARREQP
T5 sequence (Q9Y2K2 whole entry): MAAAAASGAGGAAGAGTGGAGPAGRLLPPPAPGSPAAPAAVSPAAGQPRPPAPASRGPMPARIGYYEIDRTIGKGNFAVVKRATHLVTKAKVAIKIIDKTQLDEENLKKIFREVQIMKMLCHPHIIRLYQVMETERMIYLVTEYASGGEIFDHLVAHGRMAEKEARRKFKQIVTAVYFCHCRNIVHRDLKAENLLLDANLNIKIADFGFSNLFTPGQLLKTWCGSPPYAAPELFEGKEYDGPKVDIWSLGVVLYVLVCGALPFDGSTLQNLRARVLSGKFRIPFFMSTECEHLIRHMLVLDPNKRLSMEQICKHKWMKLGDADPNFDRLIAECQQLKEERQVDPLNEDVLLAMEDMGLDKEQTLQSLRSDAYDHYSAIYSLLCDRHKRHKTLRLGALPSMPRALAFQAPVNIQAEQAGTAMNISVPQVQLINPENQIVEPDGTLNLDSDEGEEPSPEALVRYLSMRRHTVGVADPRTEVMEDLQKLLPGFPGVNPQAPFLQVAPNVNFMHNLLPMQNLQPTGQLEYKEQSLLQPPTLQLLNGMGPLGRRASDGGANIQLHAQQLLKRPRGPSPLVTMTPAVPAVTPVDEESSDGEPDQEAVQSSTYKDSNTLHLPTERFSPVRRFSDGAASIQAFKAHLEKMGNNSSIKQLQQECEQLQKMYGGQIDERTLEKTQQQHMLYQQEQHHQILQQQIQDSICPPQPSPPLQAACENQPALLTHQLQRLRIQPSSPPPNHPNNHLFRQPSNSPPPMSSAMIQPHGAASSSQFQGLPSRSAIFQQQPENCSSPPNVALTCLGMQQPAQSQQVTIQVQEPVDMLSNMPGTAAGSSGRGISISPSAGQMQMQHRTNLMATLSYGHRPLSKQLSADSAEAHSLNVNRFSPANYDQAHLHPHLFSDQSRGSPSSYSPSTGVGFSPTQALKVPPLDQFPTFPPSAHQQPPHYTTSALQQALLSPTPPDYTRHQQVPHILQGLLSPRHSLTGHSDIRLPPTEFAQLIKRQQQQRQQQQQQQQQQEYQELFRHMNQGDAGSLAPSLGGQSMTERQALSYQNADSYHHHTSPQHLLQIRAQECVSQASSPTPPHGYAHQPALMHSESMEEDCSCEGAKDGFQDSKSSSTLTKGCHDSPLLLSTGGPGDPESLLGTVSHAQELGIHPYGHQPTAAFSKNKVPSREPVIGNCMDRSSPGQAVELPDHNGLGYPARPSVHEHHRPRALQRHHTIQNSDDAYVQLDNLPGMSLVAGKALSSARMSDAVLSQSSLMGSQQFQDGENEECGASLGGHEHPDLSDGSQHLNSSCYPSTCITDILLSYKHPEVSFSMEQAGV
HIPK1, sequence (Q86Z02 whole entry): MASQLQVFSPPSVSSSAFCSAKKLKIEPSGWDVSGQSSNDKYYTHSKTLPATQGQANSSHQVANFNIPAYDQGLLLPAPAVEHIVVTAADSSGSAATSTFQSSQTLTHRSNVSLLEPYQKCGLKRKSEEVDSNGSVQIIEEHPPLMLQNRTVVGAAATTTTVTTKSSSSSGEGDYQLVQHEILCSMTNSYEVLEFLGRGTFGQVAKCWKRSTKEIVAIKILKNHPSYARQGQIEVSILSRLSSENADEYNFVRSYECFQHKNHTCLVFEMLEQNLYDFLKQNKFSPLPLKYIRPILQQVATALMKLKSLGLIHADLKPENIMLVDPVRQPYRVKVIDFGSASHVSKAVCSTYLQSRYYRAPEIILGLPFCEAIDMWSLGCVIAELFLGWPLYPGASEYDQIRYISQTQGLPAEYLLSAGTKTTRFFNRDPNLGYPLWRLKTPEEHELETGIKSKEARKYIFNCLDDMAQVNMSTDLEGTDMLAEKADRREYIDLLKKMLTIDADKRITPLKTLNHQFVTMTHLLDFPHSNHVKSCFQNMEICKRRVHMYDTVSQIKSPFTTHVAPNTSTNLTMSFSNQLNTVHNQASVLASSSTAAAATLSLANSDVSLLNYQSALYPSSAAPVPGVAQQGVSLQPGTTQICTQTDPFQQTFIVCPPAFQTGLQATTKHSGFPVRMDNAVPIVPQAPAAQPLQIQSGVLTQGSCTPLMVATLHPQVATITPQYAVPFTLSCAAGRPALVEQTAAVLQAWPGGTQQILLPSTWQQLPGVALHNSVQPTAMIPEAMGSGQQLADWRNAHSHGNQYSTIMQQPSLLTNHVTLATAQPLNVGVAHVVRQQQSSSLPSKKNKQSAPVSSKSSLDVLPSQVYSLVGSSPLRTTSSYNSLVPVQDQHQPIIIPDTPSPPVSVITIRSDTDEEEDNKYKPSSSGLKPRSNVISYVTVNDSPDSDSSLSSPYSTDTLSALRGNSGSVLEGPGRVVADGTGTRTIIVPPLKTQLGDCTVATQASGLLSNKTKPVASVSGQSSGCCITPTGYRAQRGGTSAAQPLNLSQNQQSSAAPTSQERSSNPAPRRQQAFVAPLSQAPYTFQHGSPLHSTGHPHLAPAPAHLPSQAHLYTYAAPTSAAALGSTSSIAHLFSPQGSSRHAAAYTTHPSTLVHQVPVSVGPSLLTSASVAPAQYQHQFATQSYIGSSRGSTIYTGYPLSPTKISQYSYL
SGK2, sequence (Q9HBY8 whole entry): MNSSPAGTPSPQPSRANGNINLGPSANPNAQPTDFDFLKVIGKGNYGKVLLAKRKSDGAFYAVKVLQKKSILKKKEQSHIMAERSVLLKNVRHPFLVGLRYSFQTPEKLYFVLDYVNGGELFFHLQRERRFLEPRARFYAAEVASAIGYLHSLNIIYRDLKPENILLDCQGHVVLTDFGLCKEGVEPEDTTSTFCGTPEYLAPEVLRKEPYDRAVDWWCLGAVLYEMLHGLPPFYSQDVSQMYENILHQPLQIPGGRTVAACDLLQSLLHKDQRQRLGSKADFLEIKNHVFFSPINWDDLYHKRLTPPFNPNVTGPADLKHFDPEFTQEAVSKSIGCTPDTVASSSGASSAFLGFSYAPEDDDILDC

Take `c1ccc2c(c1)Sc1ccccc1N2CCN1CCOCC1` [J54]: the remaining binding amounted to 90% in experiment [1]; 100% on BRSK2; 97% at BTK; 94% on CAMK1B; 100% on CDK9; 100% on EPHA1. Moreover, the remaining binding on EPHA8 is 100%; at HIPK1, 85%; at KIT(V559D) it was 100%; at MLCK it was 79%; on NDR2 it was 100%; at NEK3, 75%. Besides, the remaining binding on NLK came out at 91%; on PAK3, 100%; at PDPK1, 92%; at PIK3CA(C420R), 88%; at QSK, 100%; on SGK2, 90%. In addition, the remaining binding on VPS34 was determined as 86%.
